The values that follow come from US9320739B2 (AMBIT BIOSCIENCES CORPORATION, priority 2008, dated 2016).

Where two headings read alike, the source gives them in different places.

The assay deals with panel of 290 distinct kinases (321 in the larger panel), excluding mutant variants.
Setting [1] is: no asterisk: panel of 290 distinct kinases, fraction of kinases inhibited 65% or greater.
Where [2] appears, read: asterisk: panel of 321 distinct kinases, fraction of kinases inhibited 65% or greater.
Setting [3] is: asterisk: panel of 321 distinct kinases.
The mark [4] stands for this setting: no asterisk: panel of 290 distinct kinases.

Protocol: Competition binding assays used herein were developed, validated and performed as described in Fabian et al., Nature Biotechnology 2005, 23, 329-336. […] The liganded beads were blocked with excess biotin and washed with blocking buffer (SeaBlock (Pierce), 1% BSA, 0.05% Tween 20, 1 mM DTT) to remove unbound ligand and to reduce non-specific binding. […] Test compounds were prepared as 100× stocks in DMSO and rapidly diluted into the aqueous environment. DMSO was added to control assays lacking a test compound. Primary screen interactions were performed in polypropylene 384-well plates in a final volume of 34 μL, while Kd determinations were performed in polystyrene 96-well plates in a final volume of 135 pt. […] The kinase concentration in the eluates was measured by quantitative PCR. Each kinase was tested individually against each compound. Kds were determined using eleven serial threefold dilutions. A selectivity score, which is a quantitative measure of selectivity of a compound against a panel of enzymes, may be calculated for a compound by dividing the number of enzymes for which a compound meets a set criteria, (for example, a binding constant of 100 nM or less), by the total number of enzymes tested. […] (Note, for those compounds tested in a larger kinase panel, as indicated by an asterisk (*) next to the S35 score, the divisor is 321 (i.e. the larger panel contains 321 distinct kinases, excluding mutant variants.)).

For `COc1cc(OC2CCOCC2)c2c(Sc3cccc(NC(=O)Nc4cc(C(C)(C)C)on4)c3)ncnc2c1`, the S35 entry under setting [1] was “C (0.20 < C ≦ 0.40)”.

With `COc1cc2c(Sc3cccc(NC(=O)Nc4cc(C(C)(C)C)on4)c3)ncnc2cc1OCCN1CCN(CCO)CC1` [Ex 84, 1-(5-tert-butylisoxazol-3-yl)-3-(3-(7-(2-(4-(2-hydroxyethyl)piperazin-1-yl)ethoxy)-6-methoxyquinazolin-4-ylthio)phenyl)urea], the S35 result under setting [1] is on record as “D (D > 0.40)”.

In the case of `COc1cc2ncnc(Sc3cccc(NC(=O)Nc4cc(C(F)(F)F)n(-c5ccccc5)n4)c3)c2cc1OC` [Ex 170, 1-[3-(6,7-dimethoxyquinazolin-4-ylthio)phenyl]-3-[1-phenyl-5-(trifluoromethyl)-1H-pyrazol-3-yl]urea], the S35 entry under setting [2] is given as “B* (0.10 < B ≦ 0.20)”.

In the case of `COc1cc2ncnc(Sc3cccc(NC(=O)Nc4cc(C(F)(F)F)n(C)n4)c3)c2cc1OC` [Ex 194, 1-[3-(6,7-dimethoxyquinazolin-4-ylthio)phenyl]-3-[1-methyl-5-(trifluoromethyl)-1H-pyrazol-3-yl]urea], under setting [2], the S35 entry was “C* (0.20 < C ≦ 0.40)”.

Turning to `COc1cc2ncnc(Sc3cccc(NC(=O)Nc4cc(C(F)(F)F)nn4-c4ccc(C)cc4)c3)c2cc1OC` [Ex 199, 1-[3-(6,7-dimethoxyquinazolin-4-ylthio)phenyl]-3-[1-p-tolyl-3-(trifluoromethyl)-1H-pyrazol-5-yl]urea], under setting [2], the S35 entry was “D* (D > 0.40)”.

Take `COCCOc1cc2ncnc(Oc3cccc(NC(=O)Nc4cc(C(F)(F)F)nn4-c4ccccc4)c3)c2cc1OC` [Ex 221, 1-{3-[6-methoxy-7-(2-methoxyethoxy)quinazolin-4-yloxy]phenyl}-3-[1-phenyl-3-(trifluoromethyl)-1H-pyrazol-5-yl]urea]: the S35 result under setting [3] is given as “C * (0.20 < C ≦ 0.40)”.

As for `COCCOc1cc2ncnc(Sc3cccc(NC(=O)Nc4cc(C(F)(F)F)nn4-c4ccc(C)cc4)c3)c2cc1OC` [Ex 243, 1-{3-[6-methoxy-7-(2-methoxyethoxy)quinazolin-4-ylthio]phenyl}-3-[1-p-tolyl-3-(trifluoromethyl)-1H-pyrazol-5-yl]urea], under setting [3], the S35 result is given as “C * (0.20 < C ≦ 0.40)”.

`COc1cc2ncnc(Oc3cccc(NC(=O)Nc4cc(C(C)(C)CO)no4)c3)c2cc1OC` [Ex 255, 1-(3-(6,7-dimethoxyquinazolin-4-yloxy)phenyl)-3-(3-(1-hydroxy-2-methylpropan-2-yl)isoxazol-5-yl)urea]: the S35 result under setting [4] is “C (0.20 < C ≦ 0.40)”.

As to `COc1cc2ncnc(Oc3cccc(NC(=O)Nc4cc(C(C)(C)C)nn4-c4cccnc4C)c3)c2cc1OC` [Ex 305, 1-(3-tert-butyl-1-(2-methylpyridin-3-yl)-1H-pyrazol-5-yl)-3-(3-(6,7-dimethoxyquinazolin-4-yloxy)phenyl)urea], the S35 result under setting [4] is “D (D > 0.40)”.

With `COc1cc2ncnc(Oc3cccc(NC(=O)Nc4cc(C(C)(C)C(F)(F)F)nn4-c4ccccc4)c3)c2cc1OC` [Ex 306, 1-(3-(6,7-dimethoxyquinazolin-4-yloxy)phenyl)-3-(1-phenyl-3-(1,1,1-trifluoro-2-methylpropan-2-yl)-1H-pyrazol-5-yl)urea], the S35 result under setting [4] is listed as “D (D > 0.40)”.

Regarding `COc1cc2ncnc(Sc3cccc(NC(=O)Nc4cc(C(C)(C)C(F)(F)F)nn4-c4ccccc4)c3)c2cc1OC` [Ex 307, 1-(3-(6,7-dimethoxyquinazolin-4-ylthio)phenyl)-3-(1-phenyl-3-(1,1,1-trifluoro-2-methylpropan-2-yl)-1H-pyrazol-5-yl)urea], the S35 result under setting [4] is reported as “D (D > 0.40)”.

As to `COc1cc2ncnc(Oc3cccc(NC(=O)Nc4cc(C(C)(C)C#N)nn4-c4ccccc4)c3)c2cc1OC` [Ex 308, 1-(3-(2-cyanopropan-2-yl)-1-phenyl-1H-pyrazol-5-yl)-3-(3-(6,7-dimethoxyquinazolin-4-yloxy)phenyl)urea], the S35 result under setting [4] is “D (D > 0.40)”.

For `COc1cc2nc(Cl)nc(Oc3cccc(NC(=O)Nc4cc(C(C)(C)C)on4)c3)c2cc1OC` [Ex 310, 1-(5-tert-butylisoxazol-3-yl)-3-(3-(2-chloro-6,7-dimethoxyquinazolin-4-yloxy)phenyl)urea], the S35 result under setting [4] is on record as “A (A ≦ 0.10)”.

Regarding `COc1cc2ncnc(Oc3cccc(NC(=O)Nc4cc(C(C)(F)F)nn4-c4cccnc4)c3)c2cc1OC` [Ex 311, 1-(3-(1,1-difluoroethyl)-1-(pyridin-3-yl)-1H-pyrazol-5-yl)-3-(3-(6,7-dimethoxyquinazolin-4-yloxy)phenyl)urea], the S35 entry under setting [4] was “C (0.20 < C ≦ 0.40)”.

As for `COc1cc2ncnc(Oc3cccc(NC(=O)Nc4cc(C(C)(C)C)nn4-c4ccc(C)nc4)c3)c2cc1OC` [Ex 312, 1-(3-tert-butyl-1-(6-methylpyridin-3-yl)-1H-pyrazol-5-yl)-3-(3-(6,7-dimethoxyquinazolin-4-yloxy)phenyl)urea], under setting [4], the S35 entry is “D (D > 0.40)”.

As to `COc1cc2ncnc(Oc3cccc(NC(=O)Nc4cc(C(C)(C)C)nn4-c4cc[nH]c(=O)c4)c3)c2cc1OC` [Ex 313, 1-(3-tert-butyl-1-(2-oxo-1,2-dihydropyridin-4-yl)-1H-pyrazol-5-yl)-3-(3-(6,7-dimethoxyquinazolin-4-yloxy)phenyl)urea], under setting [4], the S35 result is reported as “D (D > 0.40)”.

Consider `COc1cc2ncnc(Oc3cccc(NC(=O)Nc4cc(C(C)C)nn4-c4cncc(F)c4)c3)c2cc1OC` [Ex 314, 1-(3-(6,7-dimethoxyquinazolin-4-yloxy)phenyl)-3-(1-(5-fluoropyridin-3-yl)-3-isopropyl-1H-pyrazol-5-yl)urea], for which the S35 result under setting [4] is on record as “D (D > 0.40)”.

In the case of `COc1ccc(-n2nc(C(C)(F)F)cc2NC(=O)Nc2cccc(Oc3ncnc4cc(OC)c(OC)cc34)c2)cc1` [Ex 315, 1-(3-(1,1-difluoroethyl)-1-(4-methoxyphenyl)-1H-pyrazol-5-yl)-3-(3-(6,7-dimethoxyquinazolin-4-yloxy)phenyl)urea], under setting [4], the S35 result is “D (D > 0.40)”.

`COc1cc2ncnc(Oc3cccc(NC(=O)Nc4cc(C(C)(F)F)nn4-c4cncc(F)c4)c3)c2cc1OC` [Ex 316, 1-(3-(1,1-difluoroethyl)-1-(5-fluoropyridin-3-yl)-1H-pyrazol-5-yl)-3-(3-(6,7-dimethoxyquinazolin-4-yloxy)phenyl)urea]: the S35 result under setting [4] was “C (0.20 < C ≦ 0.40)”.

As to `COc1cc2ncnc(Oc3cccc(NC(=O)Nc4cc(C(C)(C)C)nn4-c4ccc(=O)[nH]c4)c3)c2cc1OC` [Ex 317, 1-(3-tert-butyl-1-(6-oxo-1,6-dihydropyridin-3-yl)-1H-pyrazol-5-yl)-3-(3-(6,7-dimethoxyquinazolin-4-yloxy)phenyl)urea], the S35 result under setting [4] is recorded as “D (D > 0.40)”.

Turning to `COc1cc2ncnc(Oc3cccc(NC(=O)Nc4cc(C(C)(F)F)nn4-c4ccccc4)c3)c2cc1OC` [Ex 318, 1-(3-(1,1-difluoroethyl)-1-phenyl-1H-pyrazol-5-yl)-3-(3-(6,7-dimethoxyquinazolin-4-yloxy)phenyl)urea], the S35 result under setting [4] is “C (0.20 < C ≦ 0.40)”.

Turning to `COc1cc2ncnc(Sc3cccc(NC(=O)Nc4cc(C(C)(F)F)nn4-c4ccccc4)c3)c2cc1OC` [Ex 319, 1-(3-(1,1-difluoroethyl)-1-phenyl-1H-pyrazol-5-yl)-3-(3-(6,7-dimethoxyquinazolin-4-ylthio)phenyl)urea], the S35 entry under setting [4] is listed as “C (0.20 < C ≦ 0.40)”.

Consider `COc1cc2ncnc(Oc3cccc(NC(=O)Nc4cc(C(C)(C)C)nn4-c4ccnc(C)c4)c3)c2cc1OC` [Ex 320, 1-(3-tert-butyl-1-(2-methylpyridin-4-yl)-1H-pyrazol-5-yl)-3-(3-(6,7-dimethoxyquinazolin-4-yloxy)phenyl)urea], for which the S35 entry under setting [4] was “D (D > 0.40)”.

Regarding `CCn1nc(C(C)(C)C)cc1NC(=O)Nc1cccc(Sc2ncnc3cc(OC)c(OC)cc23)c1` [Ex 321, 1-(3-tert-butyl-1-ethyl-1H-pyrazol-5-yl)-3-(3-(6,7-dimethoxyquinazolin-4-ylthio)phenyl)urea], under setting [4], the S35 entry is reported as “C (0.20 < C ≦ 0.40)”.

As to `COc1cc2ncnc(Oc3cccc(NC(=O)Nc4cc(C(C)(C)C)nn4-c4cccnc4)c3)c2cc1OC` [Ex 322, 1-(3-tert-butyl-1-(pyridin-3-yl)-1H-pyrazol-5-yl)-3-(3-(6,7-dimethoxyquinazolin-4-yloxy)phenyl)urea], the S35 result under setting [4] is “D (D > 0.40)”.

For the compound `COc1cc2ncnc(Sc3cccc(NC(=O)Nc4cc(C(C)(C)C)nn4-c4cccnc4)c3)c2cc1OC` [Ex 323, 1-(3-tert-butyl-1-(pyridin-3-yl)-1H-pyrazol-5-yl)-3-(3-(6,7-dimethoxyquinazolin-4-ylthio)phenyl)urea], the S35 entry under setting [4] is “D (D > 0.40)”.

`COc1cc2ncnc(Oc3cccc(NC(=O)Nc4cc(C(C)C)nn4-c4ccccc4)c3)c2cc1OC` [Ex 324, 1-(3-(6,7-dimethoxyquinazolin-4-yloxy)phenyl)-3-(3-isopropyl-1-phenyl-1H-pyrazol-5-yl)urea]: the S35 result under setting [4] is recorded as “D (D > 0.40)”.

For `COc1cc2ncnc(Sc3cccc(NC(=O)Nc4cc(C(C)C)nn4-c4ccccc4)c3)c2cc1OC` [Ex 325, 1-(3-(6,7-dimethoxyquinazolin-4-ylthio)phenyl)-3-(3-isopropyl-1-phenyl-1H-pyrazol-5-yl)urea], the S35 result under setting [4] is listed as “C (0.20 < C ≦ 0.40)”.

For the compound `COc1cc2ncnc(Oc3cccc(NC(=O)Nc4cc(C(C)(C)C)nn4-c4cncc(F)c4)c3)c2cc1OC` [Ex 326, 1-(3-tert-butyl-1-(5-fluoropyridin-3-yl)-1H-pyrazol-5-yl)-3-(3-(6,7-dimethoxyquinazolin-4-yloxy)phenyl)urea], the S35 entry under setting [4] is on record as “D (D > 0.40)”.

For `COc1cc2ncnc(Sc3cccc(NC(=O)Nc4cc(C(C)(C)C)nn4-c4cncc(F)c4)c3)c2cc1OC` [Ex 327, 1-(3-tert-butyl-1-(5-fluoropyridin-3-yl)-1H-pyrazol-5-yl)-3-(3-(6,7-dimethoxyquinazolin-4-ylthio)phenyl)urea], the S35 result under setting [4] is listed as “D (D > 0.40)”.

As for `COc1cc2ncnc(Oc3cccc(NC(=O)Nc4cc(C(C)(C)C)nn4-c4ccc(C#N)cc4)c3)c2cc1OC` [Ex 328, 1-(3-tert-butyl-1-(4-cyanophenyl)-1H-pyrazol-5-yl)-3-(3-(6,7-dimethoxyquinazolin-4-yloxy)phenyl)urea], under setting [4], the S35 entry is listed as “D (D > 0.40)”.
